# From patent publication US10392368B2, “Pyrazolo and triazolo bicyclic compounds as JAK kinase inhibitors” (THERAVANCE BIOPHARMA R&D IP, LLC, priority 2017, dated 2019)
# Tested on: IL-2 stimulated pSTAT5 in PBMC CD4+ T cells
# Experiment: Inhibition of IL-2 stimulated pSTAT5 in human PBMC CD4+ T cells
# Assay type: cell-based
# Conditions: flow cytometry
# Description: The potency of test compounds for inhibition of interleukin-2 (IL-2) stimulated STAT5 phosphorylation was measured in human peripheral blood mononuclear cell (PBMC) CD4+ T cells using flow cytometry. Because IL-2 signals through JAK3, this assay provides a measure of JAK3 cellular potency in human primary cells.
# Phosphorylated STAT5 was measured via flow cytometry by measuring pSTAT5 response in CD4+ T cells (Becton Disckinson, AlexaFluor 647 Mouse anti-Human STAT5 (pY694) and PE Mouse anti-Human CD4).
# Human PBMCs were isolated from donors via Ficoll gradient and frozen at −80° C. Frozen PBMCs were thawed and cultured for one hour in a 37° C., 5% CO2 humidified incubator in RPMI (Life Technologies) supplemented with 10% Heat Inactivated Fetal Bovine Serum (FBS, Life Technologies), 2 mM Glutamax (Life Technologies), 25 mM HEPES (Life Technologies) and 1× Pen/Strep (Life Technologies). Cells were seeded into 2 ml deep well plates at 4e6 cells/ml (50 μl/well). […]
# To determine the inhibitory potency of test compounds in response to IL-2, the median fluorescence intensity of pSTAT5 in CD4+ gated cells was measured in human PBMCs with a BD LSRII with analysis in FCS Express 6. IC50 values were determined from analysis of the inhibition curves of signal intensity vs compound concentration. Data are expressed as pIC50 (negative decadic logarithm IC50) values (mean±standard deviation).
smiles,measurement,value
"CN(C)C/C=C/C(=O)N1CCC(C)(Oc2cc(-c3ccc(O)cc3)cc3[nH]ncc23)CC1 [Compound 9, (E)-4-(dimethylamino)-1-(4-((6-(4-hydroxyphenyl)-1H-indazol-4-yl)oxy)-4-methylpiperidin-1-yl)but-2-en-1-one]","pIC50, inhibition of IL-2 stimulated pSTAT5, compared with assay 2",values very similar to the ones obtained in assay 2
"CN(C)C/C=C/C(=O)N1CC(C#N)(COc2cc(-c3ccc(O)c(F)c3)cc3[nH]ncc23)C1 [Compound 8, (E)-1-(4-(dimethylamino)but-2-enoyl)-3-(((6-(3-fluoro-4-hydroxyphenyl)-1Hindazol-4-yl)oxy)methyl)azetidine-3-carbonitrile]","pIC50, inhibition of IL-2 stimulated pSTAT5, compared with assay 2",values very similar to the ones obtained in assay 2
